This note sets out measurements from ChEMBL document CHEMBL4619816, “GSK973 Is an Inhibitor of the Second Bromodomains (BD2s) of the Bromodomain and Extra-Terminal (BET) Family” (ACS Med Chem Lett, 2020).

Values after ≈ are worked out from the molar mass of the structure shown.

For series [1], the target named is Bromodomain-containing protein 4 (Homo sapiens, UniProt O60885, Y97A). In words: Displacement of Alexa Fluor 647 labelled ligand from His6-tagged BRD4 BD2 (1 to 477 residues)/BD1 Y97A mutant (unknown origin) after 30 mins by TR-FRET assay.
The test system of another series is Blood. In words: Inhibition of LPS-induced MCP1 production in human whole blood preincubated for 30 mins followed by LPS addition measured after 24 hrs by immuno assay. The format is functional, tissue-based.
A short description of series [2]: Clearance in Beagle dog hepatocytes assessed as per gram tissue at 0.5 uM measured up to 2 hrs by LC-MS/MS analysis. In kind it is ADME, cell-based, Canis lupus familiaris, Hepatocyte.
Series [3] in a line: Chromatographic hydrophobicity index, log D of the compound in pH 7.4 ammonium acetate buffer/acetonitrile gradient by HPLC analysis. The format is physicochemical.
Series [4] in a line: Clearance in Wistar Han rat hepatocytes assessed as per gram tissue at 0.5 uM by LC-MS/MS analysis. The format is ADME, cell-based, Hepatocyte.
Series [5] can be described thus: Clearance in human pooled hepatocytes assessed as per gram tissue at 0.5 uM measured up to 2 hrs by LC-MS/MS analysis. The format is ADME, cell-based, Hepatocyte.
Series [6] deals with Bromodomain-containing protein 4 (Homo sapiens), O60885 [UNDEFINED MUTATION]. In words: Selectivity index, ratio of IC50 for displacement of Alexa Fluor 647 labelled ligand from His6-tagged BRD4 BD1 (1 to 477 residues)/BD2 Y390A mutant (unknown origin) to IC50 for displacement of Alexa Fluor 647 labelled ligand from His6-tagged BRD4 BD2 (1 to 477 residues)/BD1 Y97A mutant (unknown origin).

Series [7] deals with Bromodomain-containing protein 4 (Homo sapiens, UniProt O60885, Y390A). In words: Displacement of Alexa Fluor 647 labelled ligand from His6-tagged BRD4 BD1 (1 to 477 residues)/BD2 Y390A mutant (unknown origin) after 30 mins by TR-FRET assay. (In general: TR-FRET usually uses a lanthanide donor and a delayed reading to cut background.)
The nature of series [8]: Clearance in Beagle dog hepatocytes assessed as per gram tissue at 0.5 uM measured up to 1 hr by LC-MS/MS analysis. In kind it is ADME, cell-based, Canis lupus familiaris, Hepatocyte.
Series [9] in a line: Clearance in human pooled hepatocytes assessed as per gram tissue at 0.5 uM by LC-MS/MS analysis. The format is ADME, cell-based, Hepatocyte.
Series [10] is described as follows: Clearance in Wistar Han rat hepatocytes assessed as per gram tissue at 0.5 uM measured up to 1 hr by LC-MS/MS analysis. The format is ADME, cell-based, Hepatocyte.
Series [11] can be described thus: Volume of distribution at steady state in Wistar Han rat at 1 mg/kg administered as iv infusion for 1 hr and measured up to 7 hrs by LC-MS/MS analysis. The format is ADME, organism-based. The settings on record: in vivo, read-out: Vdss.
Series [12] in a line: Renal clearance in Wistar Han rat at 1 mg/kg administered as iv infusion for 1 hr and measured up to 7 hrs by LC-MS/MS analysis. The format is ADME, organism-based. Conditions: in vivo.
The nature of series [13]: Solubility of compound by CLND method. In kind it is physicochemical.
A short description of series [14]: Clearance in Wistar Han rat at 1 mg/kg administered as iv infusion for 1 hr and measured up to 7 hrs by LC-MS/MS analysis. In kind it is ADME, organism-based. The settings on record: in vivo.
The nature of series [15]: Oral bioavailability in Wistar Han rat at 3 mg/kg administered via gavage and measured up to 7 hrs by LC-MS/MS analysis. In kind it is ADME, organism-based. Conditions: in vivo.
The nature of series [16]: Half life in Wistar Han rat at 1 mg/kg administered as iv infusion for 1 hr and measured up to 7 hrs by LC-MS/MS analysis. Conditions: in vivo. In kind it is ADME, organism-based.
Series [17] in a line: Permeability of compound by artificial membrane assay. In kind it is ADME. The settings on record: PAMPA; read-out: permeability. A general note: The PAMPA barrier holds no transporters, so it reflects passive diffusion.
A further series concerns the target serum albumin (Homo sapiens, UniProt P02768). In words: Binding affinity to human serum albumin. In kind it is ADME. Conditions: read-out: PB (converted).
The subject of the next series is PBMC. In words: Inhibition of LPS-induced MCP1 production in human PBMC. The format is functional, cell-based.

serum albumin, sequence (P02768 whole entry): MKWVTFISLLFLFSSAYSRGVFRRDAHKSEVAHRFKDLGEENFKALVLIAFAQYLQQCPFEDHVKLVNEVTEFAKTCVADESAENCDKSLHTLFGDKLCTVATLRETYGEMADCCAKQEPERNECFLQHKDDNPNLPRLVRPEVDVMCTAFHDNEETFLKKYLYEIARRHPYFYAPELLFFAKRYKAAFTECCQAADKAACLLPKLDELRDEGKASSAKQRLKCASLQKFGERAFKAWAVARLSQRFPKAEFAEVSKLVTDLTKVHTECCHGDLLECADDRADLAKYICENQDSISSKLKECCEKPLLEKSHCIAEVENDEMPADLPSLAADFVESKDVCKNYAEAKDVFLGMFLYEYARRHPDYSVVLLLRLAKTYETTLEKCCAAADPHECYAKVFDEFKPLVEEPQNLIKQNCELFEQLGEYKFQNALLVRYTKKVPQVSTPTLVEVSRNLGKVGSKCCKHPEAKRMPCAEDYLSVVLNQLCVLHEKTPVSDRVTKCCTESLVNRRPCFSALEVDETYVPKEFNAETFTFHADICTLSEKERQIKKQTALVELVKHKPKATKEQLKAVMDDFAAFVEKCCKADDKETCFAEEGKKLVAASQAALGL

What is called IC50 is the midpoint of a concentration-inhibition curve. The low end stands for inhibition by little substance, the high end for a need for much substance. `CNC(=O)c1cc(C(=O)NCC[C@@H]2CNCCO2)cc2c1O[C@H](CF)[C@H]2c1ccccc1`: the concentration for half-maximal inhibition (IC50) was 39.8 nM in series [1], 158 nM in the series on Blood and 50100 nM in series [7]. Further, the values for the CLH in series [2], in [4] and in [5] were below 0.65 mL/min/g, 1.28 mL/min/g and below 0.45 mL/min/g, respectively. The compound also returned a CHI in series [3] of 2.18. Further, the Ratio IC50 in [6] was found to be 1200.

In turn, `CNC(=O)c1cc(C(=O)NCCO)cn(Cc2ccccc2)c1=O` had a CHI in series [3] of 1.9.

The compound `CNC(=O)c1cc(C(=O)N[C@H]2C[C@@H]2C)cc2c1O[C@H](CF)[C@H]2c1ccccc1` gave an IC50 in the series on Blood of 100 nM. Moreover, the CHI in series [3] is reported as 4.53.

As for `CNC(=O)c1cc(C(=O)NC2CC2)cc2c1O[C@H](CF)[C@H]2c1ccccc1`, the CLH is below 1.26 mL/min/g in [8], below 0.45 mL/min/g in [9] and 3.2 mL/min/g in series [10]. This compound gave an IC50 in the series on Blood of 200 nM. In addition, the CHI in series [3] was 3.94.

As for `CNC(=O)c1cc(C(N)=O)cc2c1O[C@H](C)[C@H]2c1ccccc1`, the values for the IC50 in series [1] and in series [7] were 100 nM and 15800 nM, respectively. The CHI in series [3] is listed as 3.28. Further, the Ratio IC50 in series [6] stood at 160.

Consider `CNC(=O)c1cc(C(=O)NC2CCOC2)cc2c1O[C@H](CF)[C@H]2c1ccccc1` (stereo partly specified), for which the IC50 in series [1] was 158 nM; in series [7], above 50100 nM. For the same compound, in series [3], the CHI came to 3.51. Moreover, the Ratio IC50 in [6] is above 300.

A word on the kinetic solubility: it is solubility judged after dilution from a stock solution rather than from solid. In general, clearance refers to the rate of elimination divided by the concentration. As a reminder, the bioavailability is dose-corrected exposure relative to a reference, in per cent. The low end stands for little systemic uptake, the high end for much systemic uptake. The half-life is how long it takes for the measured level to halve. Turning to `CNC(=O)c1cc(C(=O)N[C@@H]2C[C@H]2CO)cc2c1O[C@H](CF)[C@H]2c1ccccc1`, the Vd in [11] turned out to be 1.7 L/kg. For the same compound, the CL renal in series [12] was 4 mL/min/kg. In addition, the IC50 is 200 nM with Blood and 15800 nM in series [7]. In addition, the CLH in [2] was below 0.65 mL/min/g; in [4], 1.65 mL/min/g; in series [5] it was below 0.45 mL/min/g. The CHI in series [3] was found to be 3. The kinetic solubility in series [13] is 114 µg/mL (≈ 286 µM). The clearance in series [14] stood at 98 mL/min/kg. The bioavailability in [15] came out at 15%. The compound also had a half-life in series [16] of 30 min. Also, the Ratio IC50 in series [6] was found to be 800. In addition, the Papp in series [17] was 7.3 ×10⁻⁶ cm/s.

As to `CCNC(=O)c1cc(C(=O)NC)c2c(c1)[C@H](c1ccccc1)[C@@H](C)O2`, the 50% inhibitory concentration (IC50) is 39.8 nM in series [1] and 39800 nM in series [7]. This compound came in with a CHI in [3] of 4.11. In addition, in series [6], the Ratio IC50 amounted to 1000.

`CNC(=O)c1cccc2c1O[C@H](C)[C@H]2c1ccccc1` (single isomer, unassigned) showed an IC50 in series [1] of 794 nM. Besides, the Ratio IC50 in series [6] came out at 25.

Turning to `CNC(=O)c1cc(C(=O)NC2CC2)cn(Cc2ccccc2)c1=O` [GSK620], the CHI in [3] was 3.07.

Consider `CNC(=O)c1cc(C(=O)NC)c2c(c1)[C@H](c1ccccc1)[C@@H](CF)O2`, for which, in the series with Blood, the IC50 is 200 nM. Moreover, the CHI in [3] was found to be 3.34. In addition, the figures for the CLH in [9] and in [10] were below 0.45 mL/min/g and 3.02 mL/min/g, respectively.

Regarding `CNC(=O)c1cc(C(=O)N[C@H]2C[C@H](O)C2)cc2c1O[C@H](CF)[C@H]2c1ccccc1`, the IC50 in series [1] is 79.4 nM; with Blood it was 316 nM; in [7] it was 31600 nM. In addition, the CHI in [3] amounted to 2.92. The CLH is 1.84 mL/min/g in series [4] and below 0.45 mL/min/g in [9]. Further, the Ratio IC50 in series [6] amounted to 400.

Turning to `CNC(=O)c1cc(C(=O)NC2CC2)cc2c1O[C@H](C)[C@H]2c1ccccc1`, the Vd in series [11] was 2.3 L/kg. In addition, the CL renal in series [12] worked out at 0.2 mL/min/kg. The IC50 was 200 nM in the series with Blood and 6.31 nM in the series on PBMC. This compound displayed a CHI in series [3] of 4.24. In [13], this compound came in with a kinetic solubility of 137 µg/mL (≈ 391 µM). The clearance in series [14] was determined as 90 mL/min/kg. Further, the fraction unbound on serum albumin is 0.11. For the same compound, the CLH was determined as 2.48 mL/min/g in series [4] and 1.42 mL/min/g in series [9]. Also, in series [16], the half-life was 24 min. Besides, the Ratio IC50 in [6] came out at 1600. Also, in series [17], the Papp amounted to 44 ×10⁻⁶ cm/s.

Consider `CNC(=O)c1cc(C(=O)NCCOC)cn(Cc2ccccc2)c1=O`, for which, in series [3], the CHI was 2.74.

Turning to `CNC(=O)c1cc(C(=O)NC)c(=O)n(Cc2ccccc2)c1`, in [3], the CHI amounted to 2.38.

Turning to `CNC(=O)c1cc(C(=O)NCCO)cc2c1O[C@H](C)[C@H]2c1ccccc1`, the IC50 is 158 nM in [1] and above 50100 nM in series [7]. In series [3], this compound gave a CHI of 3.12. Also, in series [6], the Ratio IC50 is above 320.

In series [1], `CNC(=O)c1cccc2c1O[C@@H](c1ccccc1)[C@@H]2C` showed an IC50 of 10000 nM. Moreover, the Ratio IC50 in [6] was 5.

Take `CCNC(=O)c1cc(C(=O)NC)c(=O)n(Cc2ccccc2)c1`: in series [3], the CHI worked out at 2.99.

Regarding `CNC(=O)c1cc(C(=O)NCCOC)cc2c1O[C@H](C)[C@H]2c1ccccc1`, the IC50 in series [1] was 200 nM; in series [7], 39800 nM. In [3], the CHI is listed as 3.81. Moreover, in series [6], the Ratio IC50 worked out at 200.

In the case of `CNC(=O)c1cc(C(=O)NCCC[C@H]2OC[C@H](N)CO2)cc2c1O[C@H](CF)[C@H]2c1ccccc1`, in series [11], the Vd was found to be 2.1 L/kg. Further, the CL renal in [12] is 10 mL/min/kg. Besides, the IC50 with Blood was 126 nM. Besides, in series [3], the CHI stood at 2.94. This compound also displayed a clearance in series [14] of 73 mL/min/kg. Moreover, in series [4], the CLH amounted to 1.39 mL/min/g. In addition, the bioavailability in series [15] was 3%. In series [16], this compound had a half-life of 36 min. Further, the Papp in series [17] was determined as 4.5 ×10⁻⁶ cm/s.

Turning to `CNC(=O)c1cc(C(N)=O)cn(Cc2ccccc2)c1=O`, in series [3], the CHI came to 2.03.

As to `CNC(=O)c1cc(C(=O)NC2CC2)cc2c1O[C@H](CO)[C@H]2c1ccccc1`, the Vd in series [11] worked out at 1.4 L/kg. In addition, the CL renal in [12] was determined as 23 mL/min/kg. This compound also gave an IC50 in the series on Blood of 794 nM. In series [3], this compound showed a CHI of 2.53. Also, the solubility (kinetic) in series [13] is above 177 µg/mL. This compound also had a clearance in [14] of 74 mL/min/kg. For the same compound, the fraction unbound on serum albumin is 0.21. The values for the CLH in series [4] and in series [9] were below 0.8 mL/min/g and below 0.45 mL/min/g, respectively. The same compound yielded a bioavailability in series [15] of 2%. This compound showed a half-life in series [16] of 24 min. Further, the Papp in [17] turned out to be 26.6 ×10⁻⁶ cm/s.

In the case of `CNC(=O)c1cc(C(=O)NC)c2c(c1)[C@H](c1ccccc1)[C@@H](C)O2`, the IC50 in [1] was 31.6 nM; in series [7] it was 12600 nM. This compound displayed a CHI in [3] of 3.55. In series [6], the Ratio IC50 stood at 400.

For the compound `CNC(=O)c1cccc2c1O[C@@H](C)[C@H]2c1ccccc1`, the IC50 in series [1] was 2510 nM. Further, in [6], the Ratio IC50 stood at 10.

In series [3], `CNC(=O)c1cc(C(N)=O)cc2c1O[C@H](CF)[C@H]2c1ccccc1` gave a CHI of 2.89.
